# From ChEMBL document CHEMBL3046846, “Synthesis of N-Alkyl-2, 3-dimethyl-5-[N-(5-halo-2-methylphenyl)carbamoyl]-6-pyrazinecarboxamides and Their Herbicidal Activity” (J Pestic Sci, 1997)
# How the values were obtained:
# Veronica persica [1] = test: Herbicidal activity against Veronica persica at 500 g/ha after 2 weeks; format: functional
# Galium spurium [2] = test: Herbicidal activity against Galium spurium var. echinospermon (Wally.) Hayek at 500 g/ha after 2 weeks; format: functional
# Xanthium strumarium [3] = test: Herbicidal activity against Xanthium strumarium (cocklebur) 500 g/ha after 2 weeks; format: functional
# Abutilon theophrasti [4] = test: Herbicidal activity against Abutilon theophrasti (velvetleaf) at 500 g/ha after 2 weeks; format: functional
# Avena fatua [5] = test: Herbicidal activity against Avena fatua at 500 g/ha after 2 weeks; format: functional
# Echinochloa crus-galli [6] = test: Herbicidal activity against Echinochloa crus-galli (barnyard grass) at 500 g/ha after 2 weeks; format: functional
# Glycine max [7] = test: Herbicidal activity against Glycine max (soybean) at 500 g/ha after 2 weeks; format: organism-based; conditions: in vivo, 336 h
# Triticum aestivum [8] = test: Herbicidal activity against Triticum aestivum (wheat) at 500 g/ha after 2 weeks; format: ADME, organism-based; conditions: in vivo, 336 h
# Veronica persica [9] = test: Herbicidal activity against Veronica persica at 250 g/ha after 2 weeks; format: functional
# Galium spurium [10] = test: Herbicidal activity against Galium spurium var. echinospermon (Wally.) Hayek at 250 g/ha after 2 weeks; format: functional
# Xanthium strumarium [11] = test: Herbicidal activity against Xanthium strumarium (cocklebur) 250 g/ha after 2 weeks; format: functional
# Abutilon theophrasti [12] = test: Herbicidal activity against Abutilon theophrasti (velvetleaf) at 250 g/ha after 2 weeks; format: functional
# Echinochloa crus-galli [13] = test: Herbicidal activity against Echinochloa crus-galli (barnyard grass) at 250 g/ha after 2 weeks; format: functional
# Avena fatua [14] = test: Herbicidal activity against Avena fatua at 250 g/ha after 2 weeks; format: functional
# Glycine max [15] = test: Herbicidal activity against Glycine max (soybean) at 250 g/ha after 2 weeks; format: organism-based; conditions: in vivo, 336 h
# Triticum aestivum [16] = test: Herbicidal activity against Triticum aestivum (wheat) at 250 g/ha after 2 weeks; format: organism-based; conditions: in vivo, 336 h
# Veronica persica [17] = test: Herbicidal activity against Veronica persica at 5000 g/ha after 2 weeks; format: functional
# Galium spurium [18] = test: Herbicidal activity against Galium spurium var. echinospermon (Wally.) Hayek at 5000 g/ha after 2 weeks; format: functional
# Xanthium strumarium [19] = test: Herbicidal activity against Xanthium strumarium (cocklebur) 5000 g/ha after 2 weeks; format: functional
# Abutilon theophrasti [20] = test: Herbicidal activity against Abutilon theophrasti (velvetleaf) at 5000 g/ha after 2 weeks; format: functional
# Echinochloa crus-galli [21] = test: Herbicidal activity against Echinochloa crus-galli (barnyard grass) at 5000 g/ha after 2 weeks; format: functional
# Avena fatua [22] = test: Herbicidal activity against Avena fatua at 5000 g/ha after 2 weeks; format: functional
# Glycine max [23] = test: Herbicidal activity against Glycine max (soybean) at 5000 g/ha after 2 weeks; format: organism-based; conditions: in vivo, 336 h
# Triticum aestivum [24] = test: Herbicidal activity against Triticum aestivum (wheat) at 5000 g/ha after 2 weeks; format: ADME, organism-based; conditions: in vivo, 336 h
# Xanthium strumarium [25] = test: Herbicidal activity against Xanthium strumarium (cocklebur) 200 g/ha after 2 weeks; format: functional
# Abutilon theophrasti [26] = test: Herbicidal activity against Abutilon theophrasti (velvetleaf) at 200 g/ha after 2 weeks; format: functional
# Echinochloa crus-galli [27] = test: Herbicidal activity against Echinochloa crus-galli (barnyard grass) at 200 g/ha after 2 weeks; format: functional
# Avena fatua [28] = test: Herbicidal activity against Avena fatua at 200 g/ha after 2 weeks; format: functional
# Glycine max [29] = test: Herbicidal activity against Glycine max (soybean) at 200 g/ha after 2 weeks; format: organism-based; conditions: in vivo, 336 h
# Triticum aestivum [30] = test: Herbicidal activity against Triticum aestivum (wheat) at 200 g/ha after 2 weeks; format: organism-based; conditions: in vivo, 336 h
# Veronica persica [31] = test: Herbicidal activity against Veronica persica at 200 g/ha after 2 weeks; format: functional
# Galium spurium [32] = test: Herbicidal activity against Galium spurium var. echinospermon (Wally.) Hayek at 200 g/ha after 2 weeks; format: functional
# Veronica persica [33] = test: Herbicidal activity against Veronica persica at 140 g/ha after 2 weeks; format: functional
# Galium spurium [34] = test: Herbicidal activity against Galium spurium var. echinospermon (Wally.) Hayek at 140 g/ha after 2 weeks; format: functional
# Xanthium strumarium [35] = test: Herbicidal activity against Xanthium strumarium (cocklebur) 140 g/ha after 2 weeks; format: functional
# Abutilon theophrasti [36] = test: Herbicidal activity against Abutilon theophrasti (velvetleaf) at 140 g/ha after 2 weeks; format: functional
# Echinochloa crus-galli [37] = test: Herbicidal activity against Echinochloa crus-galli (barnyard grass) at 140 g/ha after 2 weeks; format: functional
# Avena fatua [38] = test: Herbicidal activity against Avena fatua at 140 g/ha after 2 weeks; format: functional
# Glycine max [39] = test: Herbicidal activity against Glycine max (soybean) at 140 g/ha after 2 weeks; format: organism-based; conditions: in vivo, 336 h
# Triticum aestivum [40] = test: Herbicidal activity against Triticum aestivum (wheat) at 140 g/ha after 2 weeks; format: organism-based; conditions: in vivo, 336 h
Compound,Activity (Veronica persica [1]) [%],Activity (Galium spurium [2]) [%],Activity (Xanthium strumarium [3]) [%],Activity (Abutilon theophrasti [4]) [%],Activity (Avena fatua [5]) [%],Activity (Echinochloa crus-galli [6]) [%],Activity (Glycine max [7]) [%],Activity (Triticum aestivum [8]) [%],Activity (Veronica persica [9]) [%],Activity (Galium spurium [10]) [%],Activity (Xanthium strumarium [11]) [%],Activity (Abutilon theophrasti [12]) [%],Activity (Echinochloa crus-galli [13]) [%],Activity (Avena fatua [14]) [%],Activity (Glycine max [15]) [%],Activity (Triticum aestivum [16]) [%],Activity (Veronica persica [17]) [%],Activity (Galium spurium [18]) [%],Activity (Xanthium strumarium [19]) [%],Activity (Abutilon theophrasti [20]) [%],also measured
CC[C@H](C)NC(=O)c1nc(C)c(C)nc1C(=O)Nc1cc(Cl)ccc1C,95,<10,<10,<10,<10,<10,< 10,< 10,95,<10,<10,<10,<10,<10,< 10,< 10,95,50,95,95,Activity (Echinochloa crus-galli [21]): 95%; Activity (Avena fatua [22]): 30%; Activity (Glycine max [23]): < 10%; Activity (Triticum aestivum [24]): 30%
CCCCNC(=O)c1nc(C)c(C)nc1C(=O)Nc1cc(F)ccc1C,95,<10,<10,<10,<10,10,< 10,30,95,<10,<10,<10,<10,<10,< 10,< 10,95,30,50,95,Activity (Echinochloa crus-galli [21]): 70%; Activity (Avena fatua [22]): <10%; Activity (Glycine max [23]): < 10%; Activity (Triticum aestivum [24]): 30%
CCCNC(=O)c1nc(C)c(C)nc1C(=O)Nc1cc(F)ccc1C,95,<10,95,30,<10,10,< 10,< 10,95,<10,30,30,<10,<10,< 10,< 10,95,95,95,95,Activity (Echinochloa crus-galli [21]): 30%; Activity (Avena fatua [22]): 10%; Activity (Glycine max [23]): < 10%; Activity (Triticum aestivum [24]): 30%
Cc1ccc(F)cc1NC(=O)c1nc(C)c(C)nc1C(=O)NC(C)C,95,<10,70,70,30,30,< 10,10,70,<10,10,50,<10,<10,< 10,< 10,95,70,70,50,Activity (Echinochloa crus-galli [21]): 50%; Activity (Avena fatua [22]): 30%; Activity (Glycine max [23]): < 10%; Activity (Triticum aestivum [24]): 30%
CCC(C)NC(=O)c1nc(C)c(C)nc1C(=O)Nc1cc(Cl)ccc1C (racemic),70,<10,<10,<10,<10,10,< 10,< 10,70,<10,<10,<10,<10,<10,< 10,< 10,95,95,95,95,Activity (Echinochloa crus-galli [21]): 95%; Activity (Avena fatua [22]): 50%; Activity (Glycine max [23]): < 10%; Activity (Triticum aestivum [24]): 70%
Cc1ccc(F)cc1NC(=O)c1nc(C)c(C)nc1C(=O)NC(C)(C)C,70,<10,<10,<10,<10,<10,< 10,< 10,<10,<10,<10,<10,<10,<10,< 10,< 10,95,10,95,95,Activity (Echinochloa crus-galli [21]): 70%; Activity (Avena fatua [22]): 95%; Activity (Glycine max [23]): < 10%; Activity (Triticum aestivum [24]): 30%
CS(=O)(=O)NC(=O)c1cc(Oc2ccc(C(F)(F)F)cc2Cl)ccc1[N+](=O)[O-] [FOMESAFEN],,,,,,,,,,,,,,,,,,,,,Activity (Xanthium strumarium [25]): 50%; Activity (Abutilon theophrasti [26]): 95%; Activity (Echinochloa crus-galli [27]): 30%; Activity (Avena fatua [28]): <10%; Activity (Glycine max [29]): < 10%; Activity (Triticum aestivum [30]): 30%; Activity (Veronica persica [31]): 95%; Activity (Galium spurium [32]): 70%
CC(C)C1(C)N=C(c2nc3ccccc3cc2C(=O)O)NC1=O (stereo not drawn) [IMAZAQUIN],,,,,,,,,,,,,,,,,,,,,Activity (Veronica persica [33]): 50%; Activity (Galium spurium [34]): 70%; Activity (Xanthium strumarium [35]): 95%; Activity (Abutilon theophrasti [36]): 30%; Activity (Echinochloa crus-galli [37]): 30%; Activity (Avena fatua [38]): 50%; Activity (Glycine max [39]): < 10%; Activity (Triticum aestivum [40]): 70%
CC[C@@H](C)NC(=O)c1nc(C)c(C)nc1C(=O)Nc1cc(Cl)ccc1C,95,<10,<10,<10,<10,<10,< 10,< 10,70,<10,<10,<10,<10,<10,< 10,< 10,95,95,95,95,Activity (Echinochloa crus-galli [21]): 95%; Activity (Avena fatua [22]): 30%; Activity (Glycine max [23]): < 10%; Activity (Triticum aestivum [24]): 30%
Cc1ccc(F)cc1NC(=O)c1nc(C)c(C)nc1C(=O)NCC(C)C,95,<10,95,70,10,<10,< 10,10,95,<10,<10,30,<10,<10,< 10,10,95,30,95,95,Activity (Echinochloa crus-galli [21]): 30%; Activity (Avena fatua [22]): 50%; Activity (Glycine max [23]): < 10%; Activity (Triticum aestivum [24]): 30%
